The test has as its system inflammatory acne of the face. Nature of the test: Clinical trial in patients with inflammatory acne of the face. The class given is in vivo, human patients. The conditions noted are these: 10 patients 14 to 23 years old; benzoyl peroxide 4 cases, erythromycin 3 cases, nicotinamide gel 3 cases. The source says:
The composition used is a gel in accordance with that whose composition is given in example 2.

Consider `CC[C@H]1OC(=O)[C@H](C)[C@@H](O[C@H]2C[C@@](C)(OC)[C@@H](O)[C@H](C)O2)[C@H](C)[C@@H](O[C@@H]2O[C@H](C)C[C@H](N(C)C)[C@H]2O)[C@](C)(O)C[C@@H](C)C(=O)[C@H](C)[C@@H](O)[C@]1(C)O` [erythromycin], for which the “improvement of acne with conventional treatment” value is reported as “no notable improvement”.

On to `O=C(OOC(=O)c1ccccc1)c1ccccc1` [benzoyl peroxide], for which the “improvement of acne with conventional treatment” value was “no notable improvement”.
